{
  "source": "patent US20060004104A1",
  "about": "“Methods and compositions for treatment of cancer pain” (priority 2002, published 2006)",
  "format_in_all_cases": "in vivo",
  "key": {"[1]": {"test_system": "intra-tibial MRMT-1 rat mammary gland carcinoma cells (bone cancer pain)", "assay": "Rat model of bone cancer pain: weight-bearing difference (hind limb sparing)", "details": "for weight-bearing difference between contralateral and ipsilateral paw: measured 1 hour after drug administration", "method": "Adult female rats are given intra-tibial injections of MRMT-1 rat mammary gland carcinoma cells (3 μl, 10^7 cells/ml). These animals gradually develop mechanical hyperalgesia, mechanical allodynia (skin sensitivity to non-noxious stimuli) and hind limb sparing, beginning on day 12-14 following cell injection. […] Intra-tibial inoculation of MRMT-1 cells induces a time-dependent hypersensitivity in the ipsilateral limb, measured as a shift in body weight to the contralateral limb. The increase in weight-bearing difference between contralateral and ipsilateral paw (weight shift from the affected to the unaffected limb) is evident by day 14 post-inoculation and continues to increase until day 20. […] This effect is significant for COX189 on days 10, 14, 17 and 20 as well as for valdecoxib (30 mg/kg, p.o.) on day 20. […] Lower doses are not studied. […] The treatments induces a progressive and long-lasting reduction in hypersensitivity, since the weight-bearing difference is also attenuated when measured 1 h before the first daily treatment. This preventative effect reaches significant levels for all three treatments on days 14 and 17. There is no significant difference between the effects measured before and after COX189 administration on each day for any individual treatment."}, "[2]": {"test_system": "intra-tibial MRMT-1 rat mammary gland carcinoma cells (bone cancer)", "assay": "Rat model of bone cancer pain: radiologically observed structural changes and bone mineral density", "method": "Adult female rats are given intra-tibial injections of MRMT-1 rat mammary gland carcinoma cells (3 μl, 10^7 cells/ml)."}, "[3]": {"test_system": "intra-tibial MRMT-1 rat mammary gland carcinoma cells (bone cancer pain)", "assay": "Rat model of bone cancer pain: mechanical allodynia (static and dynamic)", "details": "day 20; for static allodynia (punctuate stimulus), ipsilateral paw: 90 minutes after the last administration", "method": "Adult female rats are given intra-tibial injections of MRMT-1 rat mammary gland carcinoma cells (3 μl, 10^7 cells/ml). These animals gradually develop mechanical hyperalgesia, mechanical allodynia (skin sensitivity to non-noxious stimuli) and hind limb sparing, beginning on day 12-14 following cell injection."}, "[4]": {"details": "30 mg/kg repeated administration, day 20"}},
  "data": [
    {"smiles": "Cc1ccc(Nc2c(F)cccc2Cl)c(CC(=O)O)c1", "note": "[COX189, 5-methyl-2-(2′-chloro-6′-fluoroanilino)-phenylacetic acid]", "values": [
      {"measurement": "weight-bearing difference between contralateral and ipsilateral paw", "setting": "[1]; 10 mg/kg p.o. repeated from day 10 post-inoculation, days 14, 17 and 20", "value": "significantly attenuates"},
      {"measurement": "weight-bearing difference between contralateral and ipsilateral paw", "setting": "[1]; 30 mg/kg p.o. repeated from day 10 post-inoculation, days 14, 17 and 20", "value": "significantly attenuates"},
      {"measurement": "dose-dependence of the effect on weight-bearing difference", "setting": "[1]; 10 versus 30 mg/kg p.o.", "value": "not dose-dependent"},
      {"measurement": "radiologically observed structural changes", "setting": "[2]; 10 mg/kg repeated administration, day 20", "value": "significantly inhibits"},
      {"measurement": "loss of bone mineral density compared to vehicle treated animals", "setting": "[2]; [4]", "value": "significantly inhibit"},
      {"measurement": "radiologically observed structural changes", "setting": "[2]; [4]", "value": "significantly inhibits"},
      {"measurement": "radiologically observed structural changes in an animal model of bone cancer pain", "setting": "[2]; summary statement, no dose given", "value": "inhibit"},
      {"measurement": "static allodynia (punctuate stimulus), ipsilateral paw", "setting": "[3]; 10 mg/kg p.o. repeated", "value": "significantly reverses"},
      {"measurement": "dynamic allodynia (light stroking of the skin), ipsilateral paw", "setting": "[3]; 30 mg/kg p.o. repeated", "value": "reaches statistical significance"},
      {"measurement": "static allodynia (punctuate stimulus), ipsilateral paw", "setting": "[3]; 30 mg/kg p.o. repeated", "value": "significantly reverses"}
    ]},
    {"smiles": "Cc1onc(-c2ccccc2)c1-c1ccc(S(N)(=O)=O)cc1", "note": "[valdecoxib, reference compound]", "values": [
      {"measurement": "weight-bearing difference between contralateral and ipsilateral paw", "setting": "[1]; 30 mg/kg p.o. repeated, day 20", "value": "significant"},
      {"measurement": "static allodynia (punctuate stimulus), ipsilateral paw", "setting": "[3]; 30 mg/kg p.o. repeated", "value": "significantly reverses"}
    ]}
  ]
}
